{
  "source": "paper PMC3407089",
  "about": "“Influence of GABAA Receptor α Subunit Isoforms on the Benzodiazepine Binding Site” (PLoS ONE, 2012)",
  "key": {"[1]": {"test_system": "α6S203Cβ2γ2 GABAA receptor", "assay": "Covalent reaction at the functional level (two-electrode voltage clamp, Xenopus oocytes)", "format": "cell-based", "settings": "1 µM Abecarnil at GABA EC2–5, naive oocytes", "protocol": "(§1) Capped cRNAs were synthesized (Ambion, Austin, TX, USA) from the linearized plasmids with a cytomegalovirus promotor (pCMVvectors) containing the different subunits, respectively. A poly-A tail of about 400 residues was added to each transcript using yeast poly- A polymerase (United States Biologicals, Cleveland, OH, USA). The concentration of the cRNA was quantified on a formaldehyde gel using Radiant Red stain (Bio-Rad) for visualization of the RNA. Known concentrations of RNA ladder (Invitrogen) were loaded as standard on the same gel. cRNAs were precipitated in ethanol/isoamylalcohol 19∶ 1, the dried pellet dissolved in water and stored at −80°C. cRNA mixtures were prepared from these stock solutions and stored at −80°C. Xenopus laevis oocytes were prepared, injected and defolliculated as described previously, [39]. They were injected with 50 nL of the cRNA solution containing wild type or mutated α1 or α2, α3, α5, α6 and wild type β2 and γ2 subunits at a concentration of 10 nM : 10 nM : 50 nM [40] and then incubated in modified Barth’s solution at +18°C for at least 24 h before the measurements.\n(§2) Currents were measured using a modified two-electrode voltage clamp amplifier Oocyte clamp OC-725 (Warner Instruments) in combination with a XY-recorder (90% response time 0.1s) or digitized at 100 Hz using a PowerLab 2/20 (AD Instruments) using the computer programs Chart (ADInstruments GmbH, Spechbach, Germany). Tests with a model oocyte were performed to ensure linearity in the larger current range. The response was linear up to 15 µA.\n(§3) Electrophysiological experiments were performed by using the two-electrode voltage clamp method at a holding potential of −80 mV. The perfusion medium contained 90 mM NaCl, 1 mM KCl, 1 mM MgCl2, 1 mM CaCl2, and 5 mM Na-HEPES (pH 7.4) and was applied by gravity flow 6 ml/min. The perfusion medium was applied through a glass capillary with an inner diameter of 1.35 mm, the mouth of which was placed about 0.4 mm from the surface of the oocyte. Allosteric modulation via the benzodiazepine site was measured at a GABA concentration eliciting 2–5% of the maximal GABA current amplitude. GABA was applied for 20 s alone or in combination with allosteric compound. 6 ml of the covalent reacting compound was applied to the oocyte and incubated for 3 min while stopping the flow of the perfusion medium. Modulation of GABA currents was expressed as (I(modulator + GABA)/IGABA –1) * 100%. The perfusion system was cleaned between drug applications by washing with DMSO to avoid contamination."}, "[2]": {"test_system": "α6N204Cβ2γ2 GABAA receptor", "assay": "Covalent reaction at the functional level (two-electrode voltage clamp, Xenopus oocytes)", "format": "cell-based", "settings": "1 µM Abecarnil at GABA EC2–5, naive oocytes", "protocol": "as §1, §2, §3"}, "α6 containing receptors": {"test_system": "T1, α6 containing receptors", "T1 construct": "expressed in transfected cells; host or cells: Xenopus laevis oocytes (cRNA injection)", "assay": "Functional modulation of GABA currents (Xenopus oocytes)", "format": "cell-based", "settings": "functional level", "protocol": "as §1, with “Xenopus laevis oocytes were prepared, injected and defolliculated as described previously, [39]. They were injected with 50 nL of the cRNA solution containing wild type or mutated α1 or α2, α3, α5, α6 and wild type β2 and γ2 subunits at a concentration of 10 nM : 10 nM : 50 nM [40] and then incubated in modified Barth’s solution at +18°C for at least 24 h before the measurements.” left out\nas §2, with “Tests with a model oocyte were performed to ensure linearity in the larger current range. The response was linear up to 15 µA.” left out\nElectrophysiological experiments were performed by using the two-electrode voltage clamp method at a holding potential of −80 mV. […] Allosteric modulation via the benzodiazepine site was measured at a GABA concentration eliciting 2–5% of the maximal GABA current amplitude. […] Modulation of GABA currents was expressed as (I(modulator + GABA)/IGABA –1) * 100%. […]"}, "[3]": {"test_system": "α1S204Cβ2γ2 GABAA receptor", "assay": "Covalent reaction at the functional level (two-electrode voltage clamp, Xenopus oocytes)", "format": "cell-based", "settings": "1 µM diazepam at GABA EC2–5, naive oocytes", "protocol": "as §1, §2, §3"}, "[4]": {"test_system": "α5S209Cβ2γ2 GABAA receptor", "assay": "Covalent reaction at the functional level (two-electrode voltage clamp, Xenopus oocytes)", "format": "cell-based", "settings": "1 µM diazepam at GABA EC2–5, naive oocytes", "protocol": "as §1, §2, §3"}, "[5]": {"test_system": "α3T231Cβ2γ2 GABAA receptor", "assay": "Covalent reaction at the functional level (two-electrode voltage clamp, Xenopus oocytes)", "format": "cell-based", "settings": "1 µM diazepam at GABA EC2–5, naive oocytes", "protocol": "as §1, §2, §3"}, "[6]": {"test_system": "α5T208Cβ2γ2 GABAA receptor", "assay": "Covalent reaction at the functional level (two-electrode voltage clamp, Xenopus oocytes)", "format": "cell-based", "settings": "1 µM diazepam at GABA EC2–5, naive oocytes", "protocol": "as §1, §2, §3"}, "[7]": {"test_system": "T2, α5T210Cβ2γ2 GABAA receptor", "T2 construct": "expressed in transfected cells; host or cells: Xenopus laevis oocytes (cRNA injection)", "assay": "Covalent reaction at the functional level (two-electrode voltage clamp, Xenopus oocytes)", "format": "cell-based", "settings": "1 µM diazepam at GABA EC2–5, naive oocytes", "protocol": "as §1, §2, §3"}, "[8]": {"test_system": "α3S230Cβ2γ2 GABAA receptor", "assay": "Covalent reaction at the functional level (two-electrode voltage clamp, Xenopus oocytes)", "format": "cell-based", "settings": "1 µM diazepam at GABA EC2–5, naive oocytes", "protocol": "as §1, §2, §3"}, "α6T205Cβ2γ2 receptor": {"molecular_target": "T3, α6T205Cβ2γ2 receptor (Rattus norvegicus, UniProt P18508+P30191, T224C)", "T3 construct": "expressed in transfected cells; host or cells: HEK293 cells (ATCC CRL 1573), membranes", "T3 sequence (P30191 20-453 T224C)": "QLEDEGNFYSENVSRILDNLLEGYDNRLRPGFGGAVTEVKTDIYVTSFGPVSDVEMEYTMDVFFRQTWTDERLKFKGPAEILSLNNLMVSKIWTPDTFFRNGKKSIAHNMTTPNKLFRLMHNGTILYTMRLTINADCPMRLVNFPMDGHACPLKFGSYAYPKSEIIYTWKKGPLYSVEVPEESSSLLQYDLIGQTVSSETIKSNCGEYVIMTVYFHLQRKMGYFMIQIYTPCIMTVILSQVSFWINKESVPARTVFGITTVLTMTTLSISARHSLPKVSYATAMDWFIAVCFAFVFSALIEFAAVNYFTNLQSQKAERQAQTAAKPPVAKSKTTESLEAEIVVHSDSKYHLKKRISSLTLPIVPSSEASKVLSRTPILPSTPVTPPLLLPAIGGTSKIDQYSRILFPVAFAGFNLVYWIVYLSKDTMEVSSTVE", "T3 sequence (P63138 25-474 partner limits assumed)": "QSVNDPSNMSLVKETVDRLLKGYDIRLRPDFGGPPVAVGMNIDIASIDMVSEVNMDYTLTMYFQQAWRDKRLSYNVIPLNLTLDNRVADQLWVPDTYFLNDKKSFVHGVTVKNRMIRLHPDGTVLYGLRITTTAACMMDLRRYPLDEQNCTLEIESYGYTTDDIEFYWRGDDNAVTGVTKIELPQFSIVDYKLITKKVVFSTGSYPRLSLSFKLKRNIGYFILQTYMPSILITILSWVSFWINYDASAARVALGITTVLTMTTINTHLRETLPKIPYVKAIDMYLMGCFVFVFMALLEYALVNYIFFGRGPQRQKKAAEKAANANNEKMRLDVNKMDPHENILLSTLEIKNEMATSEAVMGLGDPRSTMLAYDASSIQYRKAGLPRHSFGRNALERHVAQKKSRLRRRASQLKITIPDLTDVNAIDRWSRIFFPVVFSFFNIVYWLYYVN", "T3 sequence (P18508 39-466)": "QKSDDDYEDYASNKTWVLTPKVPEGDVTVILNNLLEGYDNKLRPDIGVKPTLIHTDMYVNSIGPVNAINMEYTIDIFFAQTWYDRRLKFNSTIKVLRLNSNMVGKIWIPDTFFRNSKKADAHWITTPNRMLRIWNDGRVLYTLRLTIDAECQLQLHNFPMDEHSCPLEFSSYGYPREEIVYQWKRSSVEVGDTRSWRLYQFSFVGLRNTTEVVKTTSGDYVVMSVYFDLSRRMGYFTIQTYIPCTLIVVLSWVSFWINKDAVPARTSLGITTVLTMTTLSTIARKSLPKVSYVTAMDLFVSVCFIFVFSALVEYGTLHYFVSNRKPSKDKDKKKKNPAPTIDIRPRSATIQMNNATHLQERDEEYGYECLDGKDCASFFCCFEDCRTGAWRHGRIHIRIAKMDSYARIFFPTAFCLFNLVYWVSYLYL", "assay": "Affinity estimate with [^3H]Ro15–4513", "format": "binding", "settings": "read-out: Estimated affinity", "protocol": "(§4) cDNAs coding for the αx (x = 1, 2, 3, 6), β2, and γ2S subunits DNA (20 µg : 20 µg : 20 µg) per 9 cm diameter dish were transfected in human embryonic kidney (HEK) 293 cells (American Type of Culture Collection, MD, USA, CRL 1573) using the calcium phosphate precipitation technique. For α5 containing receptors β2 was replaced by β1. […] Culturing of cells and membrane preparation were done as described before.\n(§5) The properties of the recombinant mutant receptors were only estimated. For this affinity estimate, membranes were re-suspended in phosphate buffer using a Teflon homogenizer. They were incubated in a total volume of 360 µl for 1 h on ice in the presence of [^3H]Ro15–1788 (78.6 Ci/mmol; PerkinElmer Life Sciences). The final protein concentration was 0.1–1 mg of protein/ml. Total binding was measured at 0.5 and 5 nM [^3H]Ro15–1788. Nonspecific binding was determined under the same condition but in the presence of 100 µM unlabeled Ro15–1788 and amounted to less than 10% of total binding, except for α2S206Cβ2γ2 and α5T208Cβ2γ2 where it amounted to 10–17%. Expression levels of α6β2γ2 receptors were estimated with [^3H]Ro15–4513. Membranes were collected by rapid vacuum filtration on GF/C filters. After three washing steps (3 sec each) with 5 ml of phosphate buffer, the filter-retained radioactivity was determined by liquid scintillation counting."}, "α1G207Cβ2γ2 receptors": {"test_system": "T4, α1G207Cβ2γ2 receptors", "T4 construct": "expressed in transfected cells; host or cells: HEK293 cells (ATCC CRL 1573), membranes", "assay": "Radioactive ligand binding", "settings": "not shown", "protocol": "as §4, §5"}, "α2G207Cβ2γ2 receptors": {"test_system": "T5, α2G207Cβ2γ2 receptors", "T5 construct": "expressed in transfected cells; host or cells: HEK293 cells (ATCC CRL 1573), membranes", "assay": "Radioactive ligand binding", "settings": "not shown", "protocol": "as §4, §5"}},
  "data": [
    {"smiles": "COCc1c(C(=O)OC(C)C)ncc2[nH]c3ccc(OCc4ccccc4)cc3c12", "note": "[Abecarnil, reference compound]", "values": [
      {"measurement": "% allosteric modulation, DZ (*1µM Abecarnil was used)", "setting": "[1]", "result": "50±20", "unit": "%"},
      {"measurement": "% allosteric modulation, DZ (*1µM Abecarnil was used)", "setting": "[2]", "result": "70±40", "unit": "%"}
    ]},
    {"smiles": "CN1C(=O)CN=C(c2ccccc2)c2cc(Cl)ccc21", "note": "[DZ, diazepam, reference compound]", "values": [
      {"measurement": "Response to diazepam (in words)", "setting": "α6 containing receptors", "result": "did not respond"},
      {"measurement": "% allosteric modulation, DZ", "setting": "[3]", "result": "126±9", "unit": "%"},
      {"measurement": "% allosteric modulation, DZ", "setting": "[4]", "result": "103±3", "unit": "%"},
      {"measurement": "% allosteric modulation, DZ", "setting": "[5]", "result": "88±45", "unit": "%"},
      {"measurement": "% allosteric modulation, DZ", "setting": "[6]", "result": "129±38", "unit": "%"},
      {"measurement": "% allosteric modulation, DZ", "setting": "[7]", "result": "82±14", "unit": "%"},
      {"measurement": "% allosteric modulation, DZ", "setting": "[8]", "result": "149±44", "unit": "%"}
    ]},
    {"smiles": "CCOC(=O)c1ncn2c1CN(C)C(=O)c1cc(N=[N+]=[N-])ccc1-2", "note": "[[^3H]Ro15–4513]", "values": [
      {"measurement": "Kd", "setting": "α6T205Cβ2γ2 receptor", "result": 4, "unit": "nM"}
    ]},
    {"smiles": "CCOC(=O)c1ncn2c1CN(C)C(=O)c1cc(F)ccc1-2", "note": "[[^3H]Ro 15–1788]", "values": [
      {"measurement": "High affinity binding (in words)", "setting": "α1G207Cβ2γ2 receptors", "result": "did not confer to the expressed receptors high affinity"},
      {"measurement": "High affinity binding (in words)", "setting": "α2G207Cβ2γ2 receptors", "result": "did not confer to the expressed receptors high affinity"}
    ]},
    {"smiles": "CN1C(=O)CN=C(c2ccccc2F)c2cc([N+](=O)[O-])ccc21", "note": "[[^3H]flunitrazepam, flunitrazepam]", "values": [
      {"measurement": "High affinity binding (in words)", "setting": "α1G207Cβ2γ2 receptors", "result": "did not confer to the expressed receptors high affinity"},
      {"measurement": "High affinity binding (in words)", "setting": "α2G207Cβ2γ2 receptors", "result": "did not confer to the expressed receptors high affinity"}
    ]}
  ]
}
